# Tests used:
# S. aureus ATCC 13709 = test: MIC, antibacterial potency, S. aureus; assay type: cell-based
# S. pneumoniae ATCC 51916 = test: MIC, S. pneumoniae; assay type: cell-based
# [1] = S. pneumoniae (Spn52), in µg/mL
SMILES,"MIC, SA (S. aureus ATCC 13709; S. aureus (SA), in µg/mL)",MIC Spn52 (S. pneumoniae ATCC 51916; [1]),"MIC, SA (S. aureus ATCC 13709; S. aureus)",MIC Spn52 (S. pneumoniae ATCC 51916; S. pneumoniae)
"CCc1[nH]c2nc(Sc3cncnc3)nc(N3CC(CN)C3)c2c1Cl [700,786]",16,32,,
"CCc1[nH]c2nc(Sc3cnc4nccnc4c3)nc(N3CC(N)C3)c2c1Br [700,469]",,,1 µg/mL,2 µg/mL
"CCc1[nH]c2nc(Sc3cnc4c(N)nc(C)nc4c3)nc(N3CC(O)C3)c2c1Cl.O=C(O)C(F)(F)F [700,514]",,,≤ 0.5 µg/mL,≤ 0.5 µg/mL
"CCc1[nH]c2nc(Sc3cncc(N)c3)nc(N3CC[C@@H](N)C3)c2c1Cl [700,820]",16,32,,
"CCc1[nH]c2nc(Sc3cnc4cccnc4c3)nc(N3CCC(N)(C(=O)N[C@H](CO)C(=O)OC)C3)c2c1Cl (stereo partly drawn) [700,889]",32,32,,
"CCc1[nH]c2nc(Oc3cncnc3)nc(N3CC(O)C3)c2c1Cl.O=C(O)C(F)(F)F [700,458]",,,2 µg/mL,8 µg/mL
"CCc1[nH]c2nc(Sc3ccc4cc(C(=O)N[C@H]5CCOC5=O)cnc4c3)nc(N3CC[C@@H](N)C3)c2c1Cl [700,697]",,,4 µg/mL,8 µg/mL
"CCOc1nc(Nc2cnc3c(cnn3C(C)C)c2)nc2[nH]c(CC)c(Cl)c12.O=C(O)C(F)(F)F [700,406]",,,2 µg/mL,16 µg/mL
"CCc1[nH]c2nc(Sc3cnc4nccnc4c3)nc(N3CC(NC(=O)C4CC4)C3)c2c1Cl [700,440]",,,≤ 0.5 µg/mL,≤ 0.5 µg/mL
"CCc1[nH]c2nc(Sc3cnc4nccnc4c3)nc(-n3ccnc3)c2c1Cl [700,542]",,,2 µg/mL,8 µg/mL
"CCc1[nH]c2nc(Sc3cnc4nccnc4c3)nc(N3CC(NC(=O)CNC4CCOC4=O)C3)c2c1Cl.O=C(O)C(F)(F)F (stereo not drawn) [700,505]",,,4 µg/mL,32 µg/mL
"CCc1[nH]c2nc(Sc3nc(C(=O)O)cs3)nc(NCCCNC(=N)N)c2c1Cl.O=C(O)C(F)(F)F [700,343]",,,> 64 µg/mL,> 64 µg/mL
"CCc1[nH]c2nc(Nc3cnc4c(c3)nnn4C(C)C)nc(N3CC(NC(=O)OC(C)(C)C)C3)c2c1Br.O=C(O)C(F)(F)F [700,485]",,,4 µg/mL,> 64 µg/mL
"CCc1[nH]c2nc(Sc3nc(C(=O)NOC)cs3)nc(N3CCOCC3)c2c1Cl.O=C(O)C(F)(F)F [700,397]",,,> 64 µg/mL,> 64 µg/mL
"CCNC(=O)NC1CN(c2nc(Sc3cnc4nccnc4c3)nc3[nH]c(CC)c(Cl)c23)C1 [700,490]",,,> 64 µg/mL,1 µg/mL
"CCc1[nH]c2nc(Sc3cnc4nccnc4c3)nc(N3CC[C@@H](N(C)C)C3)c2c1Cl [700,430]",,,32 µg/mL,32 µg/mL
"CCc1[nH]c2nc(Sc3cnc4nccnc4c3)nc(N3CC4C(C3)C4NC(=N)N)c2c1Cl (stereo not drawn) [700,658]",,,≤ 0.5 µg/mL,8 µg/mL
"CCNc1ccc(Sc2nc(OCC)c3c(Cl)c(CC)[nH]c3n2)nn1 [700,325]",,,> 64 µg/mL,> 64 µg/mL
"CCc1[nH]c2nc(Oc3cncc(C#N)c3)nc(Oc3cncc(C#N)c3)c2c1Cl.O=C(O)C(F)(F)F [700,723]",,,≤ 0.5 µg/mL,2 µg/mL
"CCc1[nH]c2nc(Sc3cnc4nccnc4c3)nc(N3CC(NC(=O)CN4CCNCC4)C3)c2c1Cl.O=C(O)C(F)(F)F.O=C(O)C(F)(F)F [700,504]",,,4 µg/mL,32 µg/mL
"CCOc1nc(Oc2cccnc2)nc2[nH]c(CC)c(Cl)c12.O=C(O)C(F)(F)F [700,665]",,,2 µg/mL,8 µg/mL

SMILES,"MIC, SA (S. aureus ATCC 13709; S. aureus (SA), in µg/mL)",MIC Spn52 (S. pneumoniae ATCC 51916; [1]),"MIC, SA (S. aureus ATCC 13709; S. aureus)",MIC Spn52 (S. pneumoniae ATCC 51916; S. pneumoniae)
"CCc1[nH]c2nc(Sc3cnc4nccnc4c3)nc(N3CC(NS(C)(=O)=O)C3)c2c1Br [700,470]",,,≤ 0.5 µg/mL,1 µg/mL
"CCc1[nH]c2nc(Sc3cnc4c(c3)ncc(=O)n4C3CCNCC3)nc(N3CC[C@@H](N)C3)c2c1Cl [700,799]",>64,>64,,
"CCc1[nH]c2nc(Sc3cnc4nccnc4c3)nc(N3CC(CNC(=O)C4CC4)C3)c2c1Cl [700,516]",,,≤ 0.5 µg/mL,1 µg/mL
"CCc1[nH]c2nc(Sc3cnc4nccnc4c3)nc(N3C[C@H]4CCCN[C@H]4C3)c2c1Cl.O=C(O)C(F)(F)F [700,568]",,,≤ 0.5 µg/mL,2 µg/mL
"CCOc1nc(Sc2ncc(C(=O)O)s2)nc2[nH]c(CC)c(Br)c12 [700,293]",,,32 µg/mL,32 µg/mL
"CCc1[nH]c2nc(Sc3nc(C(=O)N4CCOCC4)cs3)nc(N3CCN(C(C)=O)CC3)c2c1Cl.O=C(O)C(F)(F)F [700,365]",,,> 64 µg/mL,> 64 µg/mL
"CCc1[nH]c2nc(Sc3cnc4nccnc4c3)nc(N3CC(NC(C)=O)C3)c2c1Cl [700,441]",,,≤ 0.5 µg/mL,2 µg/mL
"C=Cc1nc(Oc2cccc(C#N)c2)nc2[nH]c(CC)c(Cl)c12 [700,831]",2,4,,
"CCc1[nH]c2nc(Sc3cnc4nccnc4c3)nc(N3CC4C(C3)C4NC(=O)OC(C)(C)C)c2c1Cl.O=C(O)C(F)(F)F.O=C(O)C(F)(F)F (stereo not drawn) [700,608]",,,1 µg/mL,2 µg/mL
"CCc1[nH]c2nc(Sc3cc(=O)n(CC(C)O)c(=O)[nH]3)nc(N3CC(O)C3)c2c1Br (stereo not drawn) [700,451]",,,1 µg/mL,4 µg/mL
"CCc1[nH]c2nc(Nc3cnc4c(c3)nnn4C(C)C)nc(N3CC(NC(=O)O)C3)c2c1Cl.O=C(O)C(F)(F)F [700,526]",,,8 µg/mL,> 64 µg/mL
"CCc1[nH]c2nc(Sc3ccc4ccc(C(=O)O)nc4c3)nc(N3CC(NS(C)(=O)=O)C3)c2c1Cl [700,808]",8,64,,
"CCOc1nc(Sc2nc(C(=O)O)cs2)nc2[nH]c(CC)c(Br)c12 [700,286]",,,4 µg/mL,32 µg/mL
"CCc1[nH]c2nc(Sc3ccc4c(N5CC[C@@H](N)C5)cc(C)nc4c3)nc(N3CC[C@@H](N)C3)c2c1Cl [700,843]",64,>64,,
"CCc1[nH]c2nc(Sc3cnc4nccnc4c3)nc(N(C)Cc3cccnc3)c2c1Cl.O=C(O)C(F)(F)F [700,546]",,,4 µg/mL,16 µg/mL
"CCc1[nH]c2nc(Sc3cccnc3)nc(NC[C@H](C)O)c2c1Br.O=C(O)C(F)(F)F [700,270]",,,2 µg/mL,8 µg/mL
"CCc1[nH]c2nc(Sc3cnc4nccnc4c3)nc(N3CC(N4CCNCC4)C3)c2c1Cl.O=C(O)C(F)(F)F.O=C(O)C(F)(F)F [700,672]",,,8 µg/mL,8 µg/mL
"CCc1[nH]c2nc(Sc3nc(C(=O)O)c(Cl)s3)nc(N3CCC(N)C3)c2c1Cl (stereo not drawn) [700,559]",,,> 64 µg/mL,> 64 µg/mL
"CCc1[nH]c2nc(Sc3cnc4c(NCC5OCCO5)nc(C)nc4c3)nc(N3CC[C@@H](N)C3)c2c1Cl [700,894]",32,8,,
"CCc1[nH]c2nc(Oc3cncc(C#N)c3)nc(Oc3cccc(C(=O)O)c3)c2c1Cl [700,828]",>64,>64,,
"CCc1[nH]c2nc(Sc3nc(-c4nnn[nH]4)cs3)nc(N3CC(O)C3)c2c1Cl.Cl.Cl.Cl.Cl [700,355]",,,> 64 µg/mL,> 64 µg/mL

SMILES,"MIC, SA (S. aureus ATCC 13709; S. aureus (SA), in µg/mL)",MIC Spn52 (S. pneumoniae ATCC 51916; [1]),"MIC, SA (S. aureus ATCC 13709; S. aureus)",MIC Spn52 (S. pneumoniae ATCC 51916; S. pneumoniae)
"CCc1[nH]c2nc(Sc3cnc4c(c3)ncc(=O)n4CCO)nc(N3CC[C@@H](N)C3)c2c1Cl [700,798]",16,32,,
"CCc1[nH]c2nc(Sc3ccc4cc(C#N)cnc4c3)nc(N3CC[C@@H](N)C3)c2c1Cl [700,715]",,,≤ 0.5 µg/mL,1 µg/mL
"CCc1[nH]c2nc(Sc3cc(=O)[nH]c(=O)[nH]3)nc(N3CC(O)C3)c2c1Br [700,360]",,,≤ 0.5 µg/mL,2 µg/mL
"CCOc1nc(Nc2nc(C(=O)O)cs2)nc2[nH]c(CC)c(Br)c12.O=C(O)C(F)(F)F [700,350]",,,32 µg/mL,64 µg/mL
"CCc1[nH]c2nc(Oc3cncc(C#N)c3)nc(Oc3cncc(C#N)c3)c2c1Br.O=C(O)C(F)(F)F [700,724]",,,≤ 0.5 µg/mL,≤ 0.5 µg/mL
"CCc1[nH]c2nc(Cc3cccnc3)nc(N3CCC(CN)CC3)c2c1Cl [700,585]",,,> 64 µg/mL,> 64 µg/mL
"CCOc1nc(Nc2cnc3c(c2)c(=O)n(C)c(=O)n3C)nc2[nH]c(CC)c(Br)c12.O=C(O)C(F)(F)F [700,452]",,,> 64 µg/mL,> 64 µg/mL
"Cc1[nH]c2nc(Sc3cnc4cccnc4n3)nc(N3CC(O)C3)c2c1C [700,351]",,,> 64 µg/mL,> 64 µg/mL
"CCc1[nH]c2nc(Sc3cnc4nccnc4c3)nc(N3CC(CNC(=O)C4CCCO4)C3)c2c1Cl (stereo not drawn) [700,522]",,,≤ 0.5 µg/mL,2 µg/mL
"CCc1[nH]c2nc(Sc3nc(C(=O)OC)c(Cl)s3)nc(OCC3CCC3)c2c1Cl [700,328]",,,> 64 µg/mL,64 µg/mL
"CCc1[nH]c2nc(Sc3cnc4nccnc4c3)nc(N3CCC4(CCNCC4)C3)c2c1Cl [700,900]",8,8,,
"CCc1[nH]c2nc(Nc3cnc4c(c3)nnn4C(C)C)nc(N3CC(N)C3)c2c1Cl.O=C(O)C(F)(F)F.O=C(O)C(F)(F)F [700,527]",,,16 µg/mL,8 µg/mL
"CCc1[nH]c2nc(Sc3cncnc3)nc(N3CC4C(N)C4C3)c2c1Cl (stereo not drawn) [700,784]",,,2 µg/mL,8 µg/mL
"CCc1[nH]c2nc(Sc3cnc4nccnc4c3)nc(N3CCC(CN)C3)c2c1Cl.O=C(O)C(F)(F)F (stereo not drawn) [700,720]",,,8 µg/mL,16 µg/mL
"CCc1[nH]c2nc(Sc3cnc4nccnc4c3)nc(N3CCC[C@H]3CN)c2c1Cl [700,462]",,,> 64 µg/mL,32 µg/mL
"CCc1[nH]c2nc(Sc3cnc4cccnc4c3)nc(N3C[C@@H](N)[C@H](c4ccccc4)C3)c2c1Cl [700,872]",1,2,,
"CCOc1nc(Cc2cccnc2)nc2[nH]c(CC)c(Cl)c12 [700,474]",,,8 µg/mL,8 µg/mL
"CCc1[nH]c2nc(Oc3cnc4ccoc4c3)nc(Oc3cncc(OC)c3)c2c1Cl.O=C(O)C(F)(F)F [700,649]",,,≤ 0.5 µg/mL,2 µg/mL
"CCc1[nH]c2nc(Sc3cnc4nccnc4c3)nc(N3CCOCC3)c2c1Cl [700,424]",,,≤ 0.5 µg/mL,1 µg/mL
"CCc1[nH]c2nc(Oc3cnc4c(cnn4C)c3)nc(Oc3cnc4c(cnn4C)c3)c2c1Cl [700,614]",,,2 µg/mL,16 µg/mL
"CCOc1nc(Nc2cccnc2)nc2[nH]c(CC)c(Br)c12 [700,331]",,,8 µg/mL,> 64 µg/mL
